Laboratory results taken from paper PMC6211260 (Journal of Enzyme Inhibition and Medicinal Chemistry, 2018).

Columns and labels:
NCI-60 cell line panel = experiment: NCI-60 single-dose (10 µM) antiproliferative screening, mean over panel; assay type: cell-based; details: single-dose 10 µM
Description: (§1) Screening against the cancer cell lines was carried out at the National Cancer Institute (NCI, Bethesda, Maryland, USA) applying the standard protocol of the NCI[22].
(§2) The final target compounds were submitted to the National Cancer Institute (NCI), Maryland, USA[23]. Thirty-one compounds were selected to be tested over 60 cell lines at single dose 10 µM.

[1] = system: Colo 205 colon cancer cell line; experiment: NCI-60 single-dose screening; assay type: cell-based; details: Homo sapiens, read-out: per cent inhibition
Description: as §1, §2

[2] = system: HCC-116 colon cancer cell line; experiment: NCI-60 single-dose screening; assay type: cell-based; details: read-out: per cent inhibition
Description: as §1, §2

[3] = system: SF-295 CNS cancer cell line; experiment: NCI-60 single-dose screening; assay type: cell-based; details: Homo sapiens, read-out: per cent inhibition
Description: as §1, §2

CNS cancer cell lines = experiment: NCI five-dose testing, subpanel mean; assay type: cell-based; details: subpanel IV: CNS cancer
Description: as §1

Leukaemia cell lines = experiment: NCI five-dose testing, subpanel mean; assay type: cell-based; details: subpanel I: Leukaemia
Description: as §1

breast cancer cell lines = experiment: NCI five-dose testing, subpanel mean; assay type: cell-based; details: subpanel IX: breast cancer
Description: as §1

colon cancer cell lines = experiment: NCI five-dose testing, subpanel mean; assay type: cell-based; details: subpanel III: colon cancer
Description: as §1

melanoma cell lines = experiment: NCI five-dose testing, subpanel mean; assay type: cell-based; details: subpanel V: melanoma
Description: as §1

[4] = system: non-small cell lung cancer cell lines; experiment: NCI five-dose testing, subpanel mean; assay type: cell-based; details: subpanel II: non-small cell lung cancer
Description: as §1

[5] = system: ovarian cancer cell lines; experiment: NCI five-dose testing, subpanel mean; assay type: cell-based; details: subpanel VI: ovarian cancer
Description: as §1

[6] = system: prostate cancer cell lines; experiment: NCI five-dose testing, subpanel mean; assay type: cell-based; details: subpanel VIII: prostate cancer
Description: as §1

renal cancer cell lines = experiment: NCI five-dose testing, subpanel mean; assay type: cell-based; details: subpanel VII: renal cancer
Description: as §1

[7] = system: A498 renal cancer cell line; experiment: NCI five-dose testing; assay type: cell-based; details: Homo sapiens
Description: as §1

[8] = system: HOP-92 non-small cell lung cancer cell line; experiment: NCI five-dose testing; assay type: cell-based; details: Homo sapiens
Description: as §1

[9] = system: HT-29 colon cancer cell line; experiment: NCI five-dose testing; assay type: cell-based; details: Homo sapiens
Description: as §1

[10] = system: K-562 leukaemia cell line; experiment: NCI five-dose testing; assay type: cell-based; details: Homo sapiens
Description: as §1

[11] = system: MDA-MB-468 breast cancer cell line; experiment: NCI five-dose testing; assay type: cell-based; details: Homo sapiens
Description: as §1

[12] = system: OVCAR-4 ovarian cancer cell line; experiment: NCI five-dose testing; assay type: cell-based; details: Homo sapiens
Description: as §1

[13] = system: PC-3 prostate cancer cell line; experiment: NCI five-dose testing; assay type: cell-based; details: Homo sapiens
Description: as §1

[14] = system: SK-MEL-5 melanoma cell line; experiment: NCI five-dose testing; assay type: cell-based; details: Homo sapiens
Description: as §1

[15] = system: U251 CNS cancer cell line; experiment: NCI five-dose testing; assay type: cell-based; details: Homo sapiens
Description: as §1

[16] = system: HT29 colon cancer cell line; experiment: NCI-60 single-dose screening; assay type: cell-based; details: 10 µM
Description: as §1, §2

SR leukaemia cell line = experiment: NCI-60 single-dose screening; assay type: cell-based; details: 10 µM
Description: as §1, §2

ABL1 (T315I) = target: T1, ABL1 (T315I) (Homo sapiens, UniProt P00519, T315I); experiment: In vitro kinase screening (Kinase HotSpot); assay type: biochemical; details: single dose of 10 µM
T1 construct: purchased Reaction Biology Corp
Description: (§3) To investigate the biological target of compound, Reaction Biology Corp. Kinase HotSpotSM service was used adopting standard assay protocol.

BRAF = target: T2, BRAF (Homo sapiens, UniProt P15056); experiment: In vitro kinase screening (Kinase HotSpot); assay type: biochemical; details: single dose of 10 µM
T2 construct: purchased Reaction Biology Corp
T2 sequence (P15056 whole entry): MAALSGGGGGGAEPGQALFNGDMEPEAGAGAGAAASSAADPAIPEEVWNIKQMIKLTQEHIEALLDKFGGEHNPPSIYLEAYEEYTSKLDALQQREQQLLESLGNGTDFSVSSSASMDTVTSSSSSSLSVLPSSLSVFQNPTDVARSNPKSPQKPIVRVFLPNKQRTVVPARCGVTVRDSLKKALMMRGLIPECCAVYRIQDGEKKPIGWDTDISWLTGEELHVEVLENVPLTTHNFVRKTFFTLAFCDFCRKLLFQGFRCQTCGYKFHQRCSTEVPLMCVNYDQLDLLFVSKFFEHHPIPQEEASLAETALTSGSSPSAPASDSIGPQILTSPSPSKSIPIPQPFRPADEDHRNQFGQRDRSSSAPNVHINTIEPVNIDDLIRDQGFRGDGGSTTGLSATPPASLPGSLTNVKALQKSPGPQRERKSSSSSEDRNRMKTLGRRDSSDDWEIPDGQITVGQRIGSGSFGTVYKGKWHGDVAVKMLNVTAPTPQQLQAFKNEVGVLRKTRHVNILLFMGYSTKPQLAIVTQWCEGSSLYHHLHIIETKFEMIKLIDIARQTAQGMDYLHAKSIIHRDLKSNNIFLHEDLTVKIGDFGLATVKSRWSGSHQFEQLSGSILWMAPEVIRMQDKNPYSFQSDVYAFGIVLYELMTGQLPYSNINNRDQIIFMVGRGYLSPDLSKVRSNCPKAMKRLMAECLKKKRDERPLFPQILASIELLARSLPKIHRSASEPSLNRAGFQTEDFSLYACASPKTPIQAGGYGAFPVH
Description: as §3

BRAF (V600E) = target: T3, BRAF (V600E) (Homo sapiens, UniProt P15056, V600E); experiment: In vitro kinase screening (Kinase HotSpot); assay type: biochemical; details: single dose of 10 µM, BRAF (V599E) in Table 6, BRAF (V600E) in text
T3 construct: purchased Reaction Biology Corp
T3 sequence (P15056 whole entry V600E): as the sequence (P15056 whole entry) above, with V600E counted along it
Description: as §3

CDK2/cyclin E = target: T4, CDK2/cyclin E (Homo sapiens, UniProt P24941); experiment: In vitro kinase screening (Kinase HotSpot); assay type: biochemical; details: single dose of 10 µM
T4 construct: purchased Reaction Biology Corp
Description: as §3

EGFR = target: T5, EGFR (Homo sapiens, UniProt P00533); experiment: In vitro kinase screening (Kinase HotSpot); assay type: biochemical; details: single dose of 10 µM
T5 construct: purchased Reaction Biology Corp
Description: as §3

GSK3b = target: T6, GSK3b (Homo sapiens, UniProt P49841); experiment: In vitro kinase screening (Kinase HotSpot); assay type: biochemical; details: single dose of 10 µM
T6 construct: purchased Reaction Biology Corp
T6 sequence (P49841 whole entry): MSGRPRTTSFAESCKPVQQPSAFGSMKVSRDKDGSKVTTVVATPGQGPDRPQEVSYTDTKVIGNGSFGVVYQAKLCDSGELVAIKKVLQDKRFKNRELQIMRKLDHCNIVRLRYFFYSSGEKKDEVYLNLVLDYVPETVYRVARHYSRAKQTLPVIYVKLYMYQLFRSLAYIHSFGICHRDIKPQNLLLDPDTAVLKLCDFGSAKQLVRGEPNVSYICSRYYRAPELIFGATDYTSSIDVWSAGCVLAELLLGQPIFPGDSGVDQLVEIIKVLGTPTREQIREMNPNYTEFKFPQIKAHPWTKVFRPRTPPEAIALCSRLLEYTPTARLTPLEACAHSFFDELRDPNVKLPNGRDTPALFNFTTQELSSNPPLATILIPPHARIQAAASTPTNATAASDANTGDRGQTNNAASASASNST
Description: as §3

IKKb/IKBKB = target: T7, IKKb/IKBKB (Homo sapiens, UniProt O14920); experiment: In vitro kinase screening (Kinase HotSpot); assay type: biochemical; details: single dose of 10 µM
T7 construct: purchased Reaction Biology Corp
T7 sequence (O14920 1-756): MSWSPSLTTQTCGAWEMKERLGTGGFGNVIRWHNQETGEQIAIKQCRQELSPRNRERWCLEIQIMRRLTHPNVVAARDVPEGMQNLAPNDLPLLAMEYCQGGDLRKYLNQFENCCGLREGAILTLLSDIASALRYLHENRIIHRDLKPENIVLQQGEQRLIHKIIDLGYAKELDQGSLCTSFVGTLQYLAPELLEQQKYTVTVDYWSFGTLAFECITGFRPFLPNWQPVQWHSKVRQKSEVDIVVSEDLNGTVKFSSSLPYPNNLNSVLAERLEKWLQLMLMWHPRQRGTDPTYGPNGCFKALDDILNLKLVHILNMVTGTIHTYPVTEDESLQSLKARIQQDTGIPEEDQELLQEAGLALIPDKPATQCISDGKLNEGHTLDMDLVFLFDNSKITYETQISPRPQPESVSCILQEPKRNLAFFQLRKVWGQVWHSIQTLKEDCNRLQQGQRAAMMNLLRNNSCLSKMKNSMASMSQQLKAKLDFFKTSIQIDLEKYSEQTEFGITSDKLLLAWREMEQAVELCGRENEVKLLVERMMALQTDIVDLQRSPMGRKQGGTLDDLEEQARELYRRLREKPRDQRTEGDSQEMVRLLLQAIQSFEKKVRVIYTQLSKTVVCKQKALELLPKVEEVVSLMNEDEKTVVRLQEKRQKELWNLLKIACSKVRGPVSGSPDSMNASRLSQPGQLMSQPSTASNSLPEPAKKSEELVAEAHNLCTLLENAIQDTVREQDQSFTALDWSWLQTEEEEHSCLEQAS
Description: as §3

JNK1 = target: T8, JNK1 (Homo sapiens, UniProt P45983); experiment: In vitro kinase screening (Kinase HotSpot); assay type: biochemical; details: single dose of 10 µM
T8 construct: purchased Reaction Biology Corp
T8 sequence (P45983 whole entry): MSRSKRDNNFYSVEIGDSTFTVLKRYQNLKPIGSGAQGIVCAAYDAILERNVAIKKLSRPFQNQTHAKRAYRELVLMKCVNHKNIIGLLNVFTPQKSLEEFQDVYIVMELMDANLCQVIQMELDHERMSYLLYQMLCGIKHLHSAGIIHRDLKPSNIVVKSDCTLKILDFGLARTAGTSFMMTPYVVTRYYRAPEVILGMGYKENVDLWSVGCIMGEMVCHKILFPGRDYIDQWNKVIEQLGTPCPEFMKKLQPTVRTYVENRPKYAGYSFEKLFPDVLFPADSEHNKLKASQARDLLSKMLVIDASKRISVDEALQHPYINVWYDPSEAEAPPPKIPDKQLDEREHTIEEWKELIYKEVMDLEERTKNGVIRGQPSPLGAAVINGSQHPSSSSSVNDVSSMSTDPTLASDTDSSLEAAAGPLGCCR
Description: as §3

JNK2 = target: T9, JNK2 (Homo sapiens, UniProt P45984); experiment: In vitro kinase screening (Kinase HotSpot); assay type: biochemical; details: single dose of 10 µM
T9 construct: purchased Reaction Biology Corp
Description: as §3

JNK3 = target: T10, JNK3 (Homo sapiens, UniProt P53779); experiment: In vitro kinase screening (Kinase HotSpot); assay type: biochemical; details: single dose of 10 µM
T10 construct: purchased Reaction Biology Corp
T10 sequence (P53779 whole entry): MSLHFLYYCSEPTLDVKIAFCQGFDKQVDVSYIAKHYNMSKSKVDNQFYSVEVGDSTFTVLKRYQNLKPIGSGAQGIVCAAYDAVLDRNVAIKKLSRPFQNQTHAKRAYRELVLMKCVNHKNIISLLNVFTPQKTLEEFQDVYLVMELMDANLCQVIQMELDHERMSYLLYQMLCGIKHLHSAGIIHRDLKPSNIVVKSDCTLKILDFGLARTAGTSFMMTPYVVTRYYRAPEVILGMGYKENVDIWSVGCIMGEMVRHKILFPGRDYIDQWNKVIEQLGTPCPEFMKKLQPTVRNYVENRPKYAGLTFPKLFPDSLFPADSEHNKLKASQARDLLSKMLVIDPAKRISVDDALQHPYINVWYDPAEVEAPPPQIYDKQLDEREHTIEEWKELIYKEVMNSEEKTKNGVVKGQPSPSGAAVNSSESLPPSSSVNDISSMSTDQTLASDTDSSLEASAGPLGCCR
Description: as §3

P38a/MAPK14 = target: T11, P38a/MAPK14 (Homo sapiens, UniProt Q16539); experiment: In vitro kinase screening (Kinase HotSpot); assay type: biochemical; details: single dose of 10 µM, P38a/MAPK14
T11 construct: purchased Reaction Biology Corp
T11 sequence (Q16539 whole entry): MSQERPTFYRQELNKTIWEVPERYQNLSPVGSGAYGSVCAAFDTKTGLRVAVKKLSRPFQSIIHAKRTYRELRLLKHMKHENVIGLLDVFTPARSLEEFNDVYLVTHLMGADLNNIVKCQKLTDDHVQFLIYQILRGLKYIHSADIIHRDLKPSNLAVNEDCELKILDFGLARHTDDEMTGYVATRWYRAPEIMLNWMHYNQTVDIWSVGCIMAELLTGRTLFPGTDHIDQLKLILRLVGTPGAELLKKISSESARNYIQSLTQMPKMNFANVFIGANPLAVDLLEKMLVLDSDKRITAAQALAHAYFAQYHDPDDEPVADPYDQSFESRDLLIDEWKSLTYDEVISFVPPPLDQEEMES
Description: as §3

ROS/ROS1 = target: T12, ROS/ROS1 (Homo sapiens, UniProt P08922); experiment: In vitro kinase screening (Kinase HotSpot); assay type: biochemical; details: single dose of 10 µM
T12 construct: purchased Reaction Biology Corp
T12 sequence (P08922 28-2347): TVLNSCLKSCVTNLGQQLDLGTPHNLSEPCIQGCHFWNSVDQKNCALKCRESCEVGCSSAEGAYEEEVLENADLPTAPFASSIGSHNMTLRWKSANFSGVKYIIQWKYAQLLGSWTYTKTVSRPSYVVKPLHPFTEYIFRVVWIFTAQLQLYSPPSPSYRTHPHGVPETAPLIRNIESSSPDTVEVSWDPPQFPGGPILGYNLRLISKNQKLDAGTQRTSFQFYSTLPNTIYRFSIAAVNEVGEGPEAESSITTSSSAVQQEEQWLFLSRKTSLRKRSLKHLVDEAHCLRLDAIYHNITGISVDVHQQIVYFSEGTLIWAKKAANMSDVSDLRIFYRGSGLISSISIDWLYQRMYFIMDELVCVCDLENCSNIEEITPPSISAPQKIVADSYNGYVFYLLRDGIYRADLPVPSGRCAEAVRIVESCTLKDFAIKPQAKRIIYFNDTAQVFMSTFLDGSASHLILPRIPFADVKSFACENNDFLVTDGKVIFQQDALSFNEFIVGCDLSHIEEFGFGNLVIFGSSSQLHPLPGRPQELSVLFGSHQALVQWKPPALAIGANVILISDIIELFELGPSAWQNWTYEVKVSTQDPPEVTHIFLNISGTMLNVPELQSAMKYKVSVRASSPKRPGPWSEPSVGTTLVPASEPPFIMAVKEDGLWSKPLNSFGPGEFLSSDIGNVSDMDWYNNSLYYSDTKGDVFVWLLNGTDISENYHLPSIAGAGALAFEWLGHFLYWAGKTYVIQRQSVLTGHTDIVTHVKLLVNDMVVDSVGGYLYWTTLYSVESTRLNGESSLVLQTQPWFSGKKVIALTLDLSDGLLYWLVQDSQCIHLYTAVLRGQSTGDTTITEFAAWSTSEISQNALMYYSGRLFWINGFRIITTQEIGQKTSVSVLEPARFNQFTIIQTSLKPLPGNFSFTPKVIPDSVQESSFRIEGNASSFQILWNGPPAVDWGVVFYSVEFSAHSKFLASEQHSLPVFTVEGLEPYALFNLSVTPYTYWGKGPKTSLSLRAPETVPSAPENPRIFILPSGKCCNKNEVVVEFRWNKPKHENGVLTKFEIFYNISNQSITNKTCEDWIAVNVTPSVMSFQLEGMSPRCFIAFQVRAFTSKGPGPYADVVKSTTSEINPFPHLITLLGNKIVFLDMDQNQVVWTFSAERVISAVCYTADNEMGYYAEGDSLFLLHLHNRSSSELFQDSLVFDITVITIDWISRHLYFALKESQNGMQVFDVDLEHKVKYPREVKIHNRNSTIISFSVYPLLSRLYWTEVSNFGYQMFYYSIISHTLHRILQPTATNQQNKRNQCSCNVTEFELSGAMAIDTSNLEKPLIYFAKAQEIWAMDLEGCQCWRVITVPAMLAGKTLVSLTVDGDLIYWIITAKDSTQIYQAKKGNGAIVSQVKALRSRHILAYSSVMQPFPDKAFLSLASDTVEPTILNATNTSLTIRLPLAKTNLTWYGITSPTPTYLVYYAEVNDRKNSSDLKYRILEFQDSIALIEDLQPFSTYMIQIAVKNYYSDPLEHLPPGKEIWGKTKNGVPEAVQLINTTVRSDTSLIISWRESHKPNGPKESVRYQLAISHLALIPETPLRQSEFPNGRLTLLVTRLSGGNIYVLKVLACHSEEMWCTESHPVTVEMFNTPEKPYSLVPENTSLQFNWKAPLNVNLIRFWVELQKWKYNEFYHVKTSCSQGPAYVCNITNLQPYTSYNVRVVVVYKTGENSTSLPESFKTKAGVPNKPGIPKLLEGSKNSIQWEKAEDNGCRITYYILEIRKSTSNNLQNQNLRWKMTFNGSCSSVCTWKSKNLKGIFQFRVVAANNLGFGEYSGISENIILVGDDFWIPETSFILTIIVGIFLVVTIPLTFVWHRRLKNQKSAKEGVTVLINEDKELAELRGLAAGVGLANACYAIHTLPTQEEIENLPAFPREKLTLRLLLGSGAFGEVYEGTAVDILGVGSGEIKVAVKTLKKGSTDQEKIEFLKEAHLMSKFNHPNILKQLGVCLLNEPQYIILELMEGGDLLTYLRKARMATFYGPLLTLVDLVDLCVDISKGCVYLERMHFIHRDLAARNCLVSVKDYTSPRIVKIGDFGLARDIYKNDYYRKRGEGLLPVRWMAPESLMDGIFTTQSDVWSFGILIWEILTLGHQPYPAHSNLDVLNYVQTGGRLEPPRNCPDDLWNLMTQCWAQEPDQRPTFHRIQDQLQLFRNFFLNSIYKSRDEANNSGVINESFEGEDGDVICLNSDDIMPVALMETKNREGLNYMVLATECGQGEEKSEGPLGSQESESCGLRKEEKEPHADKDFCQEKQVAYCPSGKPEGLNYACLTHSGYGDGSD
Description: as §3

O=S(=O)(NCCCNc1cc(-c2cn(-c3ccccc3)nc2-c2cccc(O)c2)ccn1)c1ccc(Br)cc1 [Compound 2k, 4-Bromo-N-(3-((4-(3-(3-hydroxyphenyl)-1-phenyl-1H-pyrazol-4-yl)pyridin-2-yl)amino)propyl)benzenesulfonamide]
inhibition at 10 µM (NCI-60 cell line panel; 60-cancer cell line screening): 90.6% | number of cell lines with more than 100% inhibition (NCI-60 cell line panel; NCI-60 panel): 13 | inhibition at 10 µM [1]: 168% | inhibition at 10 µM [2]: 140% | inhibition at 10 µM [3]: 147% | IC50 (CNS cancer cell lines): 1.7 µM | IC50 (Leukaemia cell lines): 1.55 µM | IC50 (breast cancer cell lines): 1.11 µM | IC50 (colon cancer cell lines): 1.48 µM | IC50 (melanoma cell lines): 1.62 µM | IC50 [4]: 1.96 µM | IC50 [5]: 2.11 µM | IC50 [6]: 2.03 µM | IC50 (renal cancer cell lines): 1.89 µM | IC50 ([7]; A498): 0.38 µM | LC50 (lethal concentration 50%) ([7]; A498, read-out: LD50 (lethal dose 50)): 11.9 µM | IC (TGI) ([7]; A498, read-out: TGI (total growth inhibition concentration)): 2.8 µM | IC50 ([8]; HOP-92): 1.83 µM | IC (TGI) ([8]; HOP-92, HOP-92, read-out: TGI (total growth inhibition concentration)): 7.5 µM | LD50 (lethal dose 50) ([8]; HOP-92, read-out: LD50 (lethal dose 50)): > 100 µM | CC50 ([9]; HT-29, read-out: LD50 (lethal dose 50)): 7.1 µM | IC50 ([9]; HT-29, read-out: IC50): 0.63 µM | IC (TGI) ([9]; HT-29, read-out: TGI (total growth inhibition concentration)): 2.3 µM | CC50 ([10]; K562, read-out: LD50 (lethal dose 50)): > 100 µM | IC50 ([10]; K562, K-562): 0.44 µM | IC (TGI) ([10]; K562, K-562, read-out: TGI (total growth inhibition concentration)): 2.8 µM | IC50 ([11]; MDA-MB-468): 1.54 µM | CC50 ([11]; MDA-MB-468, read-out: LD50 (lethal dose 50)): > 100 µM | IC (TGI) ([11]; MDA-MB-468, read-out: TGI (total growth inhibition concentration)): 5.6 µM | IC50 ([12]; OVCAR-4): 1.66 µM | LC50 (lethal concentration 50) ([12]; OVCAR-4, read-out: LD50 (lethal dose 50)): > 100 µM | IC (TGI) ([12]; OVCAR-4, read-out: TGI (total growth inhibition concentration)): 8.6 µM | LC50 (lethal concentration 50) ([13]; PC-3, read-out: LD50 (lethal dose 50)): > 100 µM | IC50 ([13]; PC-3, read-out: IC50): 2.11 µM | IC (TGI) ([13]; PC-3, read-out: TGI (total growth inhibition concentration)): 7.8 µM | IC50 ([14]; SK-MEL-5): 1.27 µM | LC50 (lethal concentration 50) ([14]; SK-MEL-5, read-out: LD50 (lethal dose 50)): 5.3 µM | IC (TGI) ([14]; SK-MEL-5, read-out: TGI (total growth inhibition concentration)): 2.6 µM | CC50 ([15]; U-251, read-out: LD50 (lethal dose 50)): 19.9 µM | IC50 ([15]; U-251, U251, read-out: IC50): 1.21 µM | IC (TGI) ([15]; U-251, U251, read-out: TGI (total growth inhibition concentration)): 4.4 µM

COc1cccc(-c2nn(-c3ccccc3)cc2-c2ccnc(NCCCNS(=O)(=O)c3ccc(Cl)cc3)c2)c1 [Compound 2c, 4-Chloro-N-(3-((4-(3-(3-methoxyphenyl)-1-phenyl-1H-pyrazol-4-yl)pyridin-2-yl)amino)propyl) benzenesulfonamide]
per cent inhibition [16]: 88.66% | per cent inhibition (SR leukaemia cell line): 92.74% | Inhibition % (ABL1 (T315I)): 4.53 ± 0.45% | Inhibition % (BRAF): 20.87 ± 0.30% | Inhibition % (BRAF (V600E)): 44.20 ± 0.40% | Inhibition % (CDK2/cyclin E): 9.80 ± 1.01% | Inhibition % (EGFR): 9.20 ± 4.45% | Inhibition % (GSK3b): 49.31 ± 0.30% | Inhibition % (IKKb/IKBKB): 7.79 ± 0.15% | Inhibition % (JNK1): 69.19 ± 0.02% | Inhibition % (JNK2): 59.68 ± 0.01% | Inhibition % (JNK3): 24.23 ± 0.03% | Inhibition % (P38a/MAPK14): 65.73 ± 0.66% | Inhibition % (ROS/ROS1): 3.40 ± 0.39%
